According to article PMC12227055 (Science Advances, 2025):
Blank lines part the entries; values can stand above or below the compound they belong to.

How the values were obtained:
CryoR1 [1] = biological target: T1, CryoR1 (Cryobacterium levicorallinum, UniProt A0A1I3DJQ0); assay: cryo-EM structure (light-accumulated M2 state), […] A; assay type: binding; conditions: covalent deprotonated Schiff base (K241); photoproduct formed in situ from all-trans-retinal; pH 10.5; 530/532 nm illumination
T1 construct: gene E3O11_09160
T1 sequence (A0A1I3DJQ0 3-327): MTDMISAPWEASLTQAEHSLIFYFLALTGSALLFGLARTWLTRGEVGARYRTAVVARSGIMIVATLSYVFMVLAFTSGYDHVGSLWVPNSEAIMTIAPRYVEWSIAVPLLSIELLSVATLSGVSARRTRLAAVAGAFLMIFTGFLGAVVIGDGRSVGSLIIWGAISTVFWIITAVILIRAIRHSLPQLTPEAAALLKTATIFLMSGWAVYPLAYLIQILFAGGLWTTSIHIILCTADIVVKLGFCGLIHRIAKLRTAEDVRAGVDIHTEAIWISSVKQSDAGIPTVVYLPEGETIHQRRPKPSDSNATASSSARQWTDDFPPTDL

[2] = biological target: CryoRhodopsin 2 (CryoR2) from Subtercola sp. AK-R2A1-2 (Subtercola sp. AK-R2A1-2); assay: crystal structure
[3] = biological target: CryoRhodopsin 2 (CryoR2) from Subtercola sp. AK-R2A1-2 (Subtercola sp. AK-R2A1-2); assay: cryo-EM structure
CryoR3 = biological target: T2, CryoR3 (Cryobacterium frigoriphilum, UniProt A0A4R8ZY77); assay: UV-Vis absorption and flash photolysis of purified holoprotein; assay type: binding; conditions: covalent Schiff base; detergent; pH 8.0
T2 construct: gene E3T55_12175
T2 sequence (A0A4R8ZY77 42-365): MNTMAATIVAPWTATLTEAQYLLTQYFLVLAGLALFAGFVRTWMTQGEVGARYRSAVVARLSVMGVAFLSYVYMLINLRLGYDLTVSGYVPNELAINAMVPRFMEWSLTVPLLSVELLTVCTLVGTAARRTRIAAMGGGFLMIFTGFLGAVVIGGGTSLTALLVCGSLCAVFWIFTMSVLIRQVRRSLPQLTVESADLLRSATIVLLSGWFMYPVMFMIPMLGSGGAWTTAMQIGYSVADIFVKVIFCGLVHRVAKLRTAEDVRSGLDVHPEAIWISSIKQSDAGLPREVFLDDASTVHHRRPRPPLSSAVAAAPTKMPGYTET

CryoR1_1–263 = biological target: T3, CryoR1_1–263 (Cryobacterium levicorallinum, UniProt A0A1I3DJQ0); assay: as above; assay type: binding; conditions: covalent Schiff base; detergent; pH 8.0
T3 construct: gene E3O11_09160
T3 sequence (A0A1I3DJQ0 3-265): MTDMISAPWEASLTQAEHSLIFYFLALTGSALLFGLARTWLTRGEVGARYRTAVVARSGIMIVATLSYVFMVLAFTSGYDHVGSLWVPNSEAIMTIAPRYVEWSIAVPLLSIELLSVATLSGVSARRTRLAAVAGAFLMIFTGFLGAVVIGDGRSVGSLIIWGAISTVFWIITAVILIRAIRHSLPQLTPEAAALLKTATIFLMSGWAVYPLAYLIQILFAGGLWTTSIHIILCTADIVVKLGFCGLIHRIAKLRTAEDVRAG

CryoR1 [4] = biological target: T1, CryoR1; assay: cryo-EM structure (ground state); assay type: binding; conditions: covalent Schiff base (K241); pH 4.3, 8.0 and 10.5; detergent micelles or nanodisc
CryoR1 [5] = biological target: T4, CryoR1 (Cryobacterium levicorallinum, UniProt A0A1I3DJQ0, R59T); assay: UV-Vis absorption and flash photolysis of purified holoprotein; assay type: binding; conditions: covalent Schiff base (K241); detergent; pH 8.0 and 10.5
T4 construct: gene E3O11_09160

CryoR4 = biological target: T5, CryoR4 (Subtercola vilae, UniProt A0A4T2CD69); assay: as above; assay type: binding; conditions: covalent Schiff base; detergent; pH 8.0
T5 construct: gene D4765_01930
T5 sequence (A0A4T2CD69 1-317): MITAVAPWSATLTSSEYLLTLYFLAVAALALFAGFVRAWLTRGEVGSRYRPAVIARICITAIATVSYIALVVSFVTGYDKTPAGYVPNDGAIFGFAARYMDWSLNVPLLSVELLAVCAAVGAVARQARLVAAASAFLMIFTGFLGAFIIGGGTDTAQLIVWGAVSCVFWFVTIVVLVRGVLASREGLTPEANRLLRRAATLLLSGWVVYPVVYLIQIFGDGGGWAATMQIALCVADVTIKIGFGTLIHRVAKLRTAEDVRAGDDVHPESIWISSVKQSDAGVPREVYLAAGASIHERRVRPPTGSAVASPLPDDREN

CryoR5 = biological target: T6, CryoR5 (Subtercola boreus, UniProt A0A3E0VLV3); assay: as above; assay type: binding; conditions: covalent Schiff base; detergent; pH 8.0
T6 construct: gene B7R54_12135
T6 sequence (A0A3E0VLV3 1-318): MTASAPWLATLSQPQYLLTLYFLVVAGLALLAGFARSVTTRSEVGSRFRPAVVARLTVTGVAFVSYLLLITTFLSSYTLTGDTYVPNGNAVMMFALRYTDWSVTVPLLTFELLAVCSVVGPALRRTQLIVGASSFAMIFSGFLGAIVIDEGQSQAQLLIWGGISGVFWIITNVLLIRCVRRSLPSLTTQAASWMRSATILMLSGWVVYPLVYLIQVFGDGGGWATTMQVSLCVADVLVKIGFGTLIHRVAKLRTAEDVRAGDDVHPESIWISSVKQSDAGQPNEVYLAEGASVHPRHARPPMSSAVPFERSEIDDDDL

[6] = biological target: CryoRhodopsin 1 (CryoR1) from Cryobacterium levicorallinum, wild type (Cryobacterium levicorallinum); assay: cryo-EM structure
[7] = biological target: CryoRhodopsin 1 (CryoR1) from Cryobacterium levicorallinum, wild type (Cryobacterium levicorallinum); assay: cryo-EM structure; remark: listed apart in the source
[8] = biological target: CryoRhodopsin 1 (CryoR1) from Cryobacterium levicorallinum, wild type (Cryobacterium levicorallinum); assay: SEC

T4 sequence (A0A1I3DJQ0 entry or part of it R59T): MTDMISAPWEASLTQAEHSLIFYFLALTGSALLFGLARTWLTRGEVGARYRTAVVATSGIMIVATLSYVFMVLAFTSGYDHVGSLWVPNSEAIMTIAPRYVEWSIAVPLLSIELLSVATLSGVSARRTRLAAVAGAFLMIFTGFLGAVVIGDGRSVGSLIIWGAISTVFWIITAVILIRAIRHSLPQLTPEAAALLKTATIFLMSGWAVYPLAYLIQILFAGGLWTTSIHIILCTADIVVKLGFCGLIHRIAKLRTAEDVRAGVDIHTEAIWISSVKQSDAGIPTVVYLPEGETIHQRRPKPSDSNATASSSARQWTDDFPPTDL

Compound: CC1=C(/C=C/C(C)=C/C=C/C(C)=C\C=O)C(C)(C)CCC1 [13-cis retinal]
cryo-EM structure (light-accumulated M2 state), 2.3 A (CryoR1 [1]): strongly suggests the 13-cis conformation of the cofactor in the M2 state

stoichiometry N [2]: 5
stoichiometry N [3]: 5
Compound: CryoRhodopsin 2 (CryoR2) from Subtercola sp. AK-R2A1-2 (natural protein)

Compound: CC1=C(/C=C/C(C)=C/C=C/C(C)=C/C=O)C(C)(C)CCC1 [all-trans-retinal]
UV-Vis absorption and flash photolysis of purified holoprotein (CryoR3): CryoR1-5 differ in their UV–visible (Vis) absorption spectra
UV-Vis absorption and flash photolysis of purified holoprotein (CryoR1_1–263): spectral properties of the truncated variant of CryoR1
cryo-EM structure (ground state) (CryoR1 [4]): presence of a single state, which we assigned to the ground state
UV-Vis absorption and flash photolysis of purified holoprotein (CryoR1 [5]): we studied the spectroscopic properties of the R57T mutant of CryoR1
UV-Vis absorption and flash photolysis of purified holoprotein (CryoR4): CryoR1-5 differ in their UV–visible (Vis) absorption spectra
UV-Vis absorption and flash photolysis of purified holoprotein (CryoR5): CryoR1-5 differ in their UV–visible (Vis) absorption spectra

stoichiometry N [6]: 5
stoichiometry N [7]: 5
stoichiometry N [8]: 5
Compound: CryoRhodopsin 1 (CryoR1) from Cryobacterium levicorallinum, wild type (natural protein)
